Results: PMC7083851, “Extended pharmacodynamic responses observed upon PROTAC-mediated degradation of RIPK2” (Communications Biology, 2020)
Where “and” joins values, the source holds several entries; their conditions need not be identical. Equal values may be shown once.

Legend:
RIPK2 [1] = target: T1, RIPK2 (Homo sapiens, UniProt O43353); experiment: RIPK2 fluorescence polarisation binding assay
MDP-induced TNFα release = MDP-induced TNFα release in human whole blood; assay type: cell-based; conditions: inhibition of MDP-induced TNFα release
Description: (§1) Before treatment with compound or vehicle, THP1 cells, human and rat PBMCs were counted using Vi-Cell cell counter (Invitrogen) and adjusted to a final cell density of […] using complete growth medium. Cells or whole blood were treated with vehicle (0.1% DMSO) or fixed concentrations of compound up to 1 μM in half log unit increments and incubated for the time period indicated in the figure.
Where the assessment of cytokines was performed, L18-MDP was added to the cell culture media (1 μg/ml) or to the rat blood samples (100 ng/ml) and samples were incubated for up to 4 h. […]
Cytokine measurement assay: Cytokine levels were measured in rat plasma or rat PBMCs cell culture supernatants using rat V-Plex TNFα, in human plasma or human PBMCs cell culture supernatants with either TNFα tissue culture or 7-plex kit. Rat serum and tissues samples from the in vivo L18-MDP acute inflammation model were analyzed using the rat TNFα, Il-6 and IL-8 U-Plex kits. […] Levels of cytokines spontaneously released from human colon biopsies cell culture supernatants were measured using Human IL-1 beta/IL-1F2 DuoSet ELISA (Bio-techne), Human IL-6 ELISA (Immunotools) and Human TNF-alpha DuoSet ELISA (Bio-techne). […] The MSD plates were analyzed using the MSD sector imager 6000 plate reader and cytokines concentration (pg/ml) was obtained by using the MSD DISCOVERY WORKBENCH software version 4.0.12.1 […]

Microsomal CLint, rat = assay type: in vitro ADME; conditions: rat microsomes
Description: (§2) Metabolic stability was performed at Cyprotex (UK). Pooled liver microsomes / cryopreserved pooled hepatocytes were purchased from a commercial supplier (BD Biosciences or Corning/InVitro Technologies).
(§3) The final incubation volume was 500 μL. A minus cofactor control incubation was included for each compound tested where 0.05 M phosphate buffer pH 7.4 was added instead of NADPH (minus NADPH). Each compound was incubated for 0, 5, 15, 30, and 45 min. The control (minus NADPH) was incubated for 45 min only.
(§4) All incubations were terminated by transferring 50 μL of incubate to 100 μL of acetonitrile containing internal standard at the appropriate time points. The termination plates were centrifuged at 2500 rpm for 20–30min at 4 °C to precipitate the protein. Following protein precipitation, samples were analysed using quantitative LC-MS/MS. A plot of ln peak area ratio (compound peak area/internal standard peak area) against time, yielded the gradient of the line.
(§5) Calculated intrinsic clearance values of control compounds were compared with the Cyprotex data library to confirm the appropriate activity of the microsomal/hepatocyte batch and data acceptance.

Microsomal CLint, human = assay type: in vitro ADME; conditions: human microsomes
Description: as §2, §3, §4, §5

[2] = High-throughput precipitation solubility, chemiluminescent nitrogen-specific detection (CLND); assay type: physicochemical; conditions: high-throughput precipitation assay
[3] = ChromLogD7.4 high-throughput chromatographic lipophilicity; assay type: physicochemical
RIPK2 [4] = target: T1, RIPK2; experiment: RIPK2 degradation in THP-1 cells, capillary-based immunoassay, 18 h; assay type: cell-based; parameters: endogenous in cells; host or cells: THP-1 (ATCC TIB-202); conditions: for RIPK2 level relative to DMSO control, mean / RIPK2 level relative to DMSO control, replicate: THP-1, 18 h
Description: The compounds were incubated with THP-1 cells for 18 h after which RIPK2 levels were determined using a capillary-based immunoassay (n = 3). All three PROTACs potently degraded RIPK2 in a concentration dependent manner (Fig. 1). […]. This discrepancy between the in vitro RIPK2 degradation and binding potency provides possible evidence for a catalytic mechanism of action of this compound.
as §1
Simple Western immunoassay: Cell lysates were mixed with 5× concentrated master mix (Protein Simple) and denatured at 95 °C on a heat block for 5 min together with the provided ladder (Protein Simple). Antibodies were diluted in the provided buffer as following: anti-RIPK2 (1:10 or 1:50), anti-cIAP1(1:10), anti-cIAP2 (1:10), anti-XIAP (1:10), mouse anti-β-actin (Abcam - 1:1000), rabbit anti-β-actin (Abcam - 1:50) and anti-vinculin (1:100). All reagents (blocking buffer, primary and secondary antibodies, streptavadin, luminol/peroxide, separation matrix, stacking matrix and water) were added to the Protein Simple plate containing the ladder and lysates and the plate was placed in a Protein Simple Western instrument and the Simple Western default size assay protocol was used. All samples were analyzed using the associated Compass software 3.1.7. The area under the peak values obtained for RIPK2, cIAP1, cIAP2 or XIAP were normalized relative to the control protein values.
In vitro experimental data were analyzed using a 4-parameter logistic equation in GraphPad Prism 5.0.4. to generate an estimate of the half-maximal concentration and maximal degradation, DC50 and Dmax value respectively, for concentration-degradation relationships. Cytokine levels were analyzed in a similar manner to yield IC50 and Imax values. […] Where analysis to a sigmoidal relationship was not possible, the data points are shown as mean ± s.e.m.

T1 sequence (O43353 whole entry): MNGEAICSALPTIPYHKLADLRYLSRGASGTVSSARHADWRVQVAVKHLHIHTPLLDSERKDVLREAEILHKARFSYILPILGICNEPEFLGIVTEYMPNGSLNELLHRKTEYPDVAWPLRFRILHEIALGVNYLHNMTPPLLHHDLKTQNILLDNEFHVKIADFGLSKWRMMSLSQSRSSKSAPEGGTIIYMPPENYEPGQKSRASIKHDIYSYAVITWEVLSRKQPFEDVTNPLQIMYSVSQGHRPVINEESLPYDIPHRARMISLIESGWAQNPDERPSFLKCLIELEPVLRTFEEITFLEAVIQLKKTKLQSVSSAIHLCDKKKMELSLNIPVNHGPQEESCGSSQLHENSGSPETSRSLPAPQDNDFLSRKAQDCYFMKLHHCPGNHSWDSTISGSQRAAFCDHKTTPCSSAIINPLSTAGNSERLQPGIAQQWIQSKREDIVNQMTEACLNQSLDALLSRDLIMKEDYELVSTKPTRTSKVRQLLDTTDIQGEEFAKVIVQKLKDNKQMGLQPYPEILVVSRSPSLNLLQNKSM

SMILES: CN[C@@H](C)C(=O)N[C@H](C(=O)N1Cc2cc(OCCOCCOCCOCCOc3cc4nccc(Nc5ccc6scnc6c5)c4cc3S(=O)(=O)C(C)(C)C)ccc2C[C@H]1C(=O)N[C@@H]1CCCc2ccccc21)C(C)(C)C [PROTAC 2]
- IC50 (RIPK2 [1]): 10 nM
- hWB MDP pIC50 ± SEM (n) (MDP-induced TNFα release): 7.95 ± 0
- microsomal turnover (Microsomal CLint, rat): 11 mL/min/g liver
- microsomal turnover (Microsomal CLint, human): 29 mL/min/g liver
- CLND solubility, in words [2]: poor solubility
- ChromLogD7.4 [3]: 6.1
- RIPK2 level relative to DMSO control, mean (RIPK2 [4]; concentration 5.64503e-11 (uM)): 117.46%
- RIPK2 level relative to DMSO control, replicate (RIPK2 [4]; concentration 5.64503e-11 (uM)): 117.27% and 131.32% and 103.77%
- RIPK2 level relative to DMSO control, mean (RIPK2 [4]; concentration 1.69351e-10 (uM)): 97.22%
- RIPK2 level relative to DMSO control, replicate (RIPK2 [4]; concentration 1.69351e-10 (uM)): 71.86% and 108.98% and 110.82%
- RIPK2 level relative to DMSO control, mean (RIPK2 [4]; concentration 5.08053e-10 (uM)): 57.20%
- RIPK2 level relative to DMSO control, replicate (RIPK2 [4]; concentration 5.08053e-10 (uM)): 41.71% and 72.70% and 57.18%
- RIPK2 level relative to DMSO control, mean (RIPK2 [4]; concentration 1.52416e-9 (uM)): 26.83%
- RIPK2 level relative to DMSO control, replicate (RIPK2 [4]; concentration 1.52416e-9 (uM)): 18.29% and 36.88% and 25.33%
- RIPK2 level relative to DMSO control, mean (RIPK2 [4]; concentration 4.57247e-9 (uM)): 15.28%
- RIPK2 level relative to DMSO control, replicate (RIPK2 [4]; concentration 4.57247e-9 (uM)): 12.82% and 16.44% and 16.58%
- RIPK2 level relative to DMSO control, mean (RIPK2 [4]; concentration 1.37174e-8 (uM)): 8.47%
- RIPK2 level relative to DMSO control, replicate (RIPK2 [4]; concentration 1.37174e-8 (uM)): 4.51% and 15.08% and 5.82%
- RIPK2 level relative to DMSO control, mean (RIPK2 [4]; concentration 4.11523e-8 (uM)): 4.73%
- RIPK2 level relative to DMSO control, replicate (RIPK2 [4]; concentration 4.11523e-8 (uM)): 6.91% and 6.83% and 0.44%
- RIPK2 level relative to DMSO control, mean (RIPK2 [4]; concentration 1.23457e-7 (uM)): 7.39%
- RIPK2 level relative to DMSO control, replicate (RIPK2 [4]; concentration 1.23457e-7 (uM)): 4.63% and 11.01% and 6.53%
- RIPK2 level relative to DMSO control, mean (RIPK2 [4]; concentration 3.7037e-7 (uM)): 9.35%
- RIPK2 level relative to DMSO control, replicate (RIPK2 [4]; concentration 3.7037e-7 (uM)): 5.28% and 16.09% and 6.68%
- RIPK2 level relative to DMSO control, mean (RIPK2 [4]; concentration 1.11111e-6 (uM)): 11.12%
- RIPK2 level relative to DMSO control, replicate (RIPK2 [4]; concentration 1.11111e-6 (uM)): 12.33% and 13.80% and 7.23%
- RIPK2 level relative to DMSO control, mean (RIPK2 [4]; concentration 3.33333e-6 (uM)): 14.86%
- RIPK2 level relative to DMSO control, replicate (RIPK2 [4]; concentration 3.33333e-6 (uM)): 10.80% and 18.84% and 14.95%
- RIPK2 level relative to DMSO control, mean (RIPK2 [4]; concentration 1e-5 (uM)): 10.81%
- RIPK2 level relative to DMSO control, replicate (RIPK2 [4]; concentration 1e-5 (uM)): 10.44% and 15.52% and 6.46%
- pDC50 (log half-maximal degradation concentration) of RIPK2 (RIPK2 [4]; THP-1 cells, 18 h, n = 3): 9.4 ± 0.1
